Publication PMC8005217, “Unravelling Regioselectivity of Leuconostoc citreum ABK-1 Alternansucrase by Acceptor Site Engineering” (International Journal of Molecular Sciences, 2021)

Experiments:
Assay in all cases: DNS reducing sugar assay (total activity)
Format in all cases: biochemical
Conditions in all cases: 0–368 mM sucrose, 50 mM sodium citrate pH 4.0, 40 °C, read-out: Km or k
[1] = biological target: T1, LcALT (truncated Leuconostoc citreum ABK-1 alternansucrase, pETΔ7SH, WT) (Leuconostoc citreum, UniProt A0A2H4A2Q1, W554A, form not given)
T1 construct: gene asr; pET19b via NcoI/XhoI, purified recombinant; exact borders and tags only in cited earlier work
T1 sequence (A0A2H4A2Q1 entry or part of it W554A, form open): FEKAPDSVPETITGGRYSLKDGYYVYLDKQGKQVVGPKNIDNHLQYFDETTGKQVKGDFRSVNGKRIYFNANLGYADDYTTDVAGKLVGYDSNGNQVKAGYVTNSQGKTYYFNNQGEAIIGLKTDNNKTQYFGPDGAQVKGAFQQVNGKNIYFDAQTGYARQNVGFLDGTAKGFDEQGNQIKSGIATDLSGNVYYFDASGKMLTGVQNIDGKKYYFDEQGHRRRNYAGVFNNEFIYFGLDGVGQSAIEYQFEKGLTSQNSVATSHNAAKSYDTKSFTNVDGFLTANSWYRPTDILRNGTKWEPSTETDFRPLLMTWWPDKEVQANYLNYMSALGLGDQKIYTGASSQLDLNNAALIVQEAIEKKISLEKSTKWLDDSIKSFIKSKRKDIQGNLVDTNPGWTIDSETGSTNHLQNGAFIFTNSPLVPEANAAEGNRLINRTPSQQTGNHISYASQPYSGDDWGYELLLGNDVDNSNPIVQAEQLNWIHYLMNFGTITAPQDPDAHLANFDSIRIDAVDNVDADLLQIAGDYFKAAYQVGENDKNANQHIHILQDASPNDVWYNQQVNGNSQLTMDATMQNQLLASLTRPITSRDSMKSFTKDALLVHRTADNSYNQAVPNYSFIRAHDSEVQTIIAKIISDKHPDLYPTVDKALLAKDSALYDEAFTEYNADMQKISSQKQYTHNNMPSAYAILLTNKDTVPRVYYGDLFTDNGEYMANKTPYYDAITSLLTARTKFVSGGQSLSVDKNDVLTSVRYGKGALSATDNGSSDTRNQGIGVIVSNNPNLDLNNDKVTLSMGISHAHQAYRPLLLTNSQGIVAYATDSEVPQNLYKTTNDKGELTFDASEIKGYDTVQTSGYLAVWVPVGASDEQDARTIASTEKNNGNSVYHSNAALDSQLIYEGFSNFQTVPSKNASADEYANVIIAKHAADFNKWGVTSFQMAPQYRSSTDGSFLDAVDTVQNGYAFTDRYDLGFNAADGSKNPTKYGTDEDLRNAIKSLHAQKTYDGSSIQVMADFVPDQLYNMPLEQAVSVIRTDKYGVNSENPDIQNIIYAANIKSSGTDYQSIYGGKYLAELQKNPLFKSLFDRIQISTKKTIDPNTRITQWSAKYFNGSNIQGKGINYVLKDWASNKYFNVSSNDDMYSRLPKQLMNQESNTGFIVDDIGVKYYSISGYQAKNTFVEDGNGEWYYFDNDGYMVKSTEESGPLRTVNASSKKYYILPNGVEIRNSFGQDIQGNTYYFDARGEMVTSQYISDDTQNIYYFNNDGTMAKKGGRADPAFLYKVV
Text: (§1) DNS reducing sugar assay (total activity) on LcALT (truncated Leuconostoc citreum ABK-1 alternansucrase, pETΔ7SH, WT)

[2] = biological target: T2, LcALT (truncated Leuconostoc citreum ABK-1 alternansucrase, pETΔ7SH, WT) (Leuconostoc citreum, UniProt A0A2H4A2Q1, W554F, form not given)
T2 construct: gene asr; pET19b via NcoI/XhoI, purified recombinant; exact borders and tags only in cited earlier work
T2 sequence (A0A2H4A2Q1 entry or part of it W554F, form open): as the sequence (A0A2H4A2Q1 entry or part of it W554A, form open) above, with A554F counted along it
Text: as §1

[3] = biological target: T3, LcALT (truncated Leuconostoc citreum ABK-1 alternansucrase, pETΔ7SH, WT) (Leuconostoc citreum, UniProt A0A2H4A2Q1, W554Y, form not given)
T3 construct: gene asr; pET19b via NcoI/XhoI, purified recombinant; exact borders and tags only in cited earlier work
T3 sequence (A0A2H4A2Q1 entry or part of it W554Y, form open): as the sequence (A0A2H4A2Q1 entry or part of it W554A, form open) above, with A554Y counted along it
Text: as §1

[4] = biological target: T4, LcALT (truncated Leuconostoc citreum ABK-1 alternansucrase, pETΔ7SH, WT) (Leuconostoc citreum, UniProt A0A2H4A2Q1, W554I, form not given)
T4 construct: gene asr; pET19b via NcoI/XhoI, purified recombinant; exact borders and tags only in cited earlier work
T4 sequence (A0A2H4A2Q1 entry or part of it W554I, form open): as the sequence (A0A2H4A2Q1 entry or part of it W554A, form open) above, with A554I counted along it
Text: as §1

[5] = biological target: T5, LcALT (truncated Leuconostoc citreum ABK-1 alternansucrase, pETΔ7SH, WT) (Leuconostoc citreum, UniProt A0A2H4A2Q1, W554S, form not given)
T5 construct: gene asr; pET19b via NcoI/XhoI, purified recombinant; exact borders and tags only in cited earlier work
T5 sequence (A0A2H4A2Q1 entry or part of it W554S, form open): as the sequence (A0A2H4A2Q1 entry or part of it W554A, form open) above, with A554S counted along it
Text: as §1

[6] = biological target: T6, LcALT (truncated Leuconostoc citreum ABK-1 alternansucrase, pETΔ7SH, WT) (Leuconostoc citreum, UniProt A0A2H4A2Q1, W554L, form not given)
T6 construct: gene asr; pET19b via NcoI/XhoI, purified recombinant; exact borders and tags only in cited earlier work
T6 sequence (A0A2H4A2Q1 entry or part of it W554L, form open): as the sequence (A0A2H4A2Q1 entry or part of it W554A, form open) above, with A554L counted along it
Text: as §1

Q: `OC[C@H]1O[C@@](CO)(O[C@H]2O[C@H](CO)[C@@H](O)[C@H](O)[C@H]2O)[C@@H](O)[C@@H]1O` [sucrose] was tested. Which Km [1] did it give?
A: 43 ± 4.7 mM

Q: And the Km [2]?
A: 16.6 ± 2.1 mM

Q: What about the Km [3] of the same compound?
A: 14.2 ± 2 mM

Q: What about the Km [4] of the same compound?
A: 53.1 ± 4.6 mM

Q: And the Km [5]?
A: 63.6 ± 8.3 mM

Q: What about the Km [6] of the same compound?
A: 46.4 ± 6 mM
